For 39 compounds, Ki results are on record in patent publication US7576076B2, “Modified pyrimidine glucocorticoid receptor modulators” (Corcept Therapeutics, Inc., priority 2004, dated 2009).

Where two headings read alike, the source gives them in different places. A value given as a limit tells only on which side of the number the result lay.

In test [1] the target is T1, human recombinant glucocorticoid receptor (Homo sapiens, UniProt P04150).
T1 construct: This GR was a full-length steroid hormone receptor; host or cells: recombinant baculovirus-infected insect cells
T1 sequence (P04150 1-777): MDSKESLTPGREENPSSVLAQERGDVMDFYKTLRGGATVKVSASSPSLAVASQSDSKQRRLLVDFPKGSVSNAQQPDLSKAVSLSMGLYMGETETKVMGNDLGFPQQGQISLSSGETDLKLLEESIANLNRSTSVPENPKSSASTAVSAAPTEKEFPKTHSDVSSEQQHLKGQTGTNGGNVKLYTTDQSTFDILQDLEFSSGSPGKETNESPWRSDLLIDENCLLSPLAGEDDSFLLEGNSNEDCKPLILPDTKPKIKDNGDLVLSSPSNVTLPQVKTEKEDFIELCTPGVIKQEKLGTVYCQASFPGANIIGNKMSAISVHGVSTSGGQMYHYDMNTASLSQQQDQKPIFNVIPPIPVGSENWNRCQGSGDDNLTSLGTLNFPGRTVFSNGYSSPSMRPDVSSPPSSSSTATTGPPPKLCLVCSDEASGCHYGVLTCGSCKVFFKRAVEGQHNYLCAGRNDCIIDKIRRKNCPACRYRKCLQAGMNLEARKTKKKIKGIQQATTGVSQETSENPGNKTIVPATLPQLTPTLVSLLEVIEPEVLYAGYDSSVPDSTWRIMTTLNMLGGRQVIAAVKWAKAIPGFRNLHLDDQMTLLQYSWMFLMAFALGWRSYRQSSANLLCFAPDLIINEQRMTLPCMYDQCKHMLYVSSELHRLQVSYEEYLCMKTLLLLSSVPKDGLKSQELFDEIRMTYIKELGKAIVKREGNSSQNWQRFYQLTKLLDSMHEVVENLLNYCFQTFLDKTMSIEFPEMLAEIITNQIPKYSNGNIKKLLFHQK
The test can be described thus: Glucocorticoid receptor binding displacement assay with 3H-dexamethasone. As to the method: The source of the receptor was recombinant baculovirus-infected insect cells. This GR was a full-length steroid hormone receptor likely to be associated with heat-shock and other endogenous proteins.
For the Primary Screen, test compounds were tested at 1 μM in duplicate. These compounds were diluted from 10 mM stock in 100% DMSO. After dilution to 100 μM, 5 μl were added to 245 μl assay buffer to obtained 2 μM compound and 2% DMSO.
For the IC50 determinations, test compounds were tested at 6 concentrations in duplicate (concentration range depends on % inhibition binding that was obtained in the Primary Screen,). Test compounds were diluted from 10 mM stock in 100% DMSO. The tested solutions were prepared at 2×final assay concentration in 2% DMSO/assay buffer.
All reagents and the assay plate were kept on ice during the addition of reagents. […] After the additions, the incubation mixture was mixed and incubated for 2.5 hrs at 4° C.
After 2.5 hrs incubation, unbound counts were removed with dextran coated charcoal (DCC) as follows: 25 μl of DCC solution (10% DCC in assay buffer) was added to all wells and mixed (total volume 225 μl). The plate was centrifuged at 4000 rpm for 10 minutes at 4° C. 75 μl of the supernatants (i.e. ⅓ of total volume) was carefully pipetted into an optiplate. 200 μl of scintillation cocktail were added (Microscint-40, Packard Bioscience. B.V.). The plate was vigorously shaken for approx. 10 minutes and counted on Topcount.
The IC50 values were converted to Ki (the inhibition constant) using the Cheng-Prusoff equation.
Reagents: Assay buffer: 10 mM potassium phosphate buffer pH 7.6 containing 5 mM DTT, 10 mM sodium molybdate, 100 μM EDTA and 0.1% BSA.

In test [2] the target is T2, endogenous glucocorticoid receptors in SW1353/MMTV-5 cells (Homo sapiens, UniProt P04150).
T2 construct: contains endogenous glucocorticoid receptors; endogenous in cells; host or cells: SW1353/MMTV-5 (human chondrosarcoma, stably transfected with the pMAMneo-Luc reporter only)
T2 sequence (P04150 1-777): T1 sequence (P04150 1-777)
Put plainly: GR functional assay using SW1353/MMTV-5 cells (luciferase reporter). The class given is cell-based. As to the method:
SW1353/MMTV-5 is an adherent human chondrosarcoma cell line that contains endogenous glucocorticoid receptors. It was transfected with a plasmid (pMAMneo-Luc) encoding firefly luciferase located behind a glucocorticoid-responsive element (GRE) derived from a viral promoter (long terminal repeat of mouse mammary tumor virus). A stable cell line SW1353/MMTV-5 was selected with geneticin, which was required to maintain this plasmid.
SW1353/MMTV-5 cells were distributed in 96-well plates and incubated in medium (without geneticin) for 24 hrs (in the absence of CO2).
In general terms: Reporter assays use an easily measured gene product as a stand-in for the process of interest.

The mark [3] stands for this setting: displacement of 2.5 nM 3H-dexamethasone, IC50 converted to Ki by Cheng-Prusoff, read-out: Ki.

By Ki is commonly meant the dissociation constant of the complex between target and ligand, obtained from inhibition or displacement. Regarding `N#Cc1cccc(Cc2c(N3CCC(c4ccccc4)CC3)[nH]c(=O)[nH]c2=O)c1` [Compound 48], in test [1] (setting [3]), the inhibition constant Ki is 10 to 100 nM.

With `CCOC(=O)N1CCN(c2[nH]c(=O)n(C)c(=O)c2Cc2cccc(C(F)(F)F)c2)CC1` [Compound 2], the inhibition constant Ki in test [1] (setting [3]) is greater than 100 nM.

Regarding `O=c1[nH]c(N2CCC(c3ccccc3)CC2)c(Cc2ccc(Cl)cc2)c(=O)[nH]1` [Compound 36], the figures for the Ki in test [1] (setting [3]) and in test [2] were 10 to 100 nM and greater than 100 nM, respectively.

For the compound `Cn1c(=O)[nH]c(N2CCC(c3ccccc3)CC2)c(Cc2ccccc2Cl)c1=O` [Compound 34], the Ki is 10 to 100 nM in test [1] (setting [3]) and greater than 100 nM in test [2].

As for `Cn1c(=O)[nH]c(N2CCC(Cc3ccccc3)CC2)c(Cc2ccc(C#N)cc2)c1=O` [Compound 9], the Ki in test [1] (setting [3]) is greater than 100 nM.

As for `Cn1c(=O)[nH]c(N2CCC(Cc3ccccc3)CC2)c(Cc2ccc(F)cc2Cl)c1=O` [Compound 8], the inhibitory constant (Ki) in test [1] (setting [3]) is greater than 100 nM.

As for `CC(C)=CCc1c(N2CCC(Cc3ccccc3)CC2)[nH]c(=O)n(C)c1=O` [Compound 11], the Ki in test [1] (setting [3]) is greater than 100 nM.

`CC(C)Cn1c(=O)[nH]c(N2CCC(Cc3ccccc3)CC2)c(Cc2cccc(Cl)c2)c1=O` [Compound 26]: in test [1] (setting [3]), the Ki is greater than 100 nM.

Take `Cn1c(=O)[nH]c(N2CCC(c3ccccc3)CC2)c(CCc2ccccc2)c1=O` [Compound 28]: in test [1] (setting [3]), the inhibitory constant (Ki) is greater than 100 nM.

`O=c1[nH]c(N2CCN(Cc3ccccc3)CC2)c(Cc2ccccc2)c(=O)[nH]1` [Compound 22]: in test [1] (setting [3]), the Ki is greater than 100 nM.

For the compound `Cn1c(=O)[nH]c(N2CCC(O)(Cc3ccccc3)CC2)c(Cc2ccccc2)c1=O` [Compound 19], in test [1] (setting [3]), the Ki was greater than 100 nM.

On to `COc1cccc(C2CCN(c3[nH]c(=O)[nH]c(=O)c3Cc3ccccc3)CC2)c1` [Compound 39], for which, in test [1] (setting [3]), the Ki is less than 10 nM.

Consider `O=c1[nH]c(N2CCC(c3c[nH]c4ccccc34)CC2)c(Cc2ccccc2)c(=O)[nH]1` [Compound 42], for which, in test [1] (setting [3]), the Ki lay within 10 to 100 nM.

In the case of `O=c1[nH]c(N2CCC(c3ccccc3)CC2)c(Cc2cccc(Cl)c2)c(=O)n1Cc1ccccc1` [Compound 27], in test [1] (setting [3]), the inhibition constant (Ki) is greater than 100 nM.

For the compound `Cn1c(=O)[nH]c(N2CCC(Cc3ccccc3)CC2)c(Cc2ccccc2Br)c1=O` [Compound 3], the Ki in test [1] (setting [3]) was greater than 100 nM.

Take `Cn1c(=O)[nH]c(N2CCC(Cc3ccccc3)CC2)c(Cc2ccc(C(C)(C)C)cc2)c1=O` [Compound 13]: the inhibitory constant (Ki) in test [1] (setting [3]) was greater than 100 nM.

For the compound `O=c1[nH]c(N2CCC(c3ccccc3)CC2)c(Cc2ccccc2)c(=O)[nH]1` [Compound 31], the Ki in test [1] (setting [3]) was less than 10 nM; in test [2] it was 10 to 100 nM.

Take `COc1ccccc1C1CCN(c2[nH]c(=O)[nH]c(=O)c2Cc2ccccc2)CC1` [Compound 41]: the inhibition constant (Ki) in test [1] (setting [3]) is less than 10 nM.

For the compound `Cn1c(=O)[nH]c(N2CCC(Oc3ccccc3)CC2)c(Cc2ccccc2)c1=O` [Compound 37], the Ki in test [1] (Ki) was in the range of 10 to 100 nM.

With `Cn1c(=O)[nH]c(N2CCC(Cc3ccccc3)CC2)c(Cc2ccc(Br)cc2)c1=O` [Compound 7], in test [1] (setting [3]), the inhibition constant Ki lay in the range of 10 to 100 nM.

As for `CCn1c(=O)[nH]c(N2CCC(Cc3ccccc3)CC2)c(Cc2cccc(Cl)c2)c1=O` [Compound 29], in test [1] (setting [3]), the inhibition constant (Ki) was greater than 100 nM.

As for `COc1ccc(C2CCN(c3[nH]c(=O)[nH]c(=O)c3Cc3ccccc3)CC2)cc1` [Compound 40], the Ki in test [1] (setting [3]) lay within 10 to 100 nM.

`O=c1[nH]c(N2CCC(Cc3ccccc3)CC2)c(Cc2ccccc2)c(=O)[nH]1` [Compound 18]: the Ki in test [1] (setting [3]) was in the range of 10 to 100 nM.

Consider `Cc1ccc(Cc2c(N3CCC(Cc4ccccc4)CC3)[nH]c(=O)n(C)c2=O)cc1` [Compound 10], for which the Ki in test [1] (setting [3]) was in the range of 10 to 100 nM.

With `Cn1c(=O)[nH]c(N2CCN(Cc3ccccc3)CC2)c(Cc2ccccc2)c1=O` [Compound 16], the Ki in test [1] (setting [3]) is greater than 100 nM.

For the compound `Cn1c(=O)[nH]c(N2CCC(Cc3ccccc3)CC2)c(Cc2ccccc2Br)c1=O` [Compound 4], the inhibition constant Ki in test [1] (setting [3]) fell in the range of 10 to 100 nM.

Turning to `O=c1[nH]c(N2CCC(c3ccccc3)CC2)c(Cc2ccccc2Cl)c(=O)[nH]1` [Compound 33], the Ki is less than 10 nM in test [1] (setting [3]) and 10 to 100 nM in test [2].

In the case of `O=c1[nH]c(N2CCC(c3ccccc3)CC2)c(Cc2cccc(Cl)c2)c(=O)[nH]1` [Compound 35], the inhibition constant Ki in test [1] (setting [3]) was less than 10 nM; in test [2], 10 to 100 nM.

On to `Cn1c(=O)[nH]c(N2CCN(C(c3ccccc3)c3ccccc3)CC2)c(Cc2ccccc2)c1=O` [Compound 21], for which the inhibition constant Ki in test [1] (setting [3]) was greater than 100 nM.

Consider `Cn1c(=O)[nH]c(N2CCC(Cc3ccccc3)CC2)c(Cc2ccccc2)c1=O` [Compound 5], for which the Ki in test [1] (setting [3]) is 10 to 100 nM.

For the compound `Cn1c(=O)[nH]c(N2CCC(O)CC2)c(Cc2cccc(C(F)(F)F)c2)c1=O` [Compound 1], the Ki in test [1] (setting [3]) is greater than 100 nM.

As for `CCn1c(=O)[nH]c(N2CCC(c3ccccc3)CC2)c(Cc2cccc(Cl)c2)c1=O` [Compound 30], the Ki in test [1] (setting [3]) is greater than 100 nM.

With `O=c1[nH]c(N2CCC(Cc3ccccc3)CC2)c(Cc2cccc(Cl)c2)c(=O)n1Cc1ccccc1` [Compound 24], the Ki in test [1] (setting [3]) fell in the range of 10 to 100 nM.

As to `Cn1c(=O)[nH]c(N2CCC(Cc3ccccc3)CC2)c(Cc2ccc(F)cc2F)c1=O` [Compound 6], the Ki in test [1] (setting [3]) is 10 to 100 nM.

Regarding `O=c1[nH]c(N2CCC(Cc3ccccc3)CC2)c(Cc2cccc(Cl)c2)c(=O)n1-c1ccccc1` [Compound 25], the inhibitory constant (Ki) in test [1] (setting [3]) is greater than 100 nM.

In the case of `Cn1c(=O)[nH]c(N2CCC(c3ccccc3)CC2)c(Cc2ccccc2)c1=O` [Compound 17], the Ki in test [1] (setting [3]) is 10 to 100 nM.

Turning to `O=c1[nH]c(N2CCC(c3ccccc3)CC2)c(Cc2cccc(Br)c2)c(=O)[nH]1` [Compound 38], the inhibition constant (Ki) in test [1] (setting [3]) and in test [2] was 10 to 100 nM in each case.

For `CC(=O)Nc1ccc(C2CCN(c3[nH]c(=O)[nH]c(=O)c3Cc3ccccc3)CC2)cc1` [Compound 46], the Ki in test [1] (setting [3]) was 10 to 100 nM.

Consider `Cn1c(=O)[nH]c(N2CCC(Cc3ccccc3)CC2)c(Cc2ccccc2-c2ccccc2)c1=O` [Compound 14], for which, in test [1] (setting [3]), the Ki is greater than 100 nM.
